In patent US10723711B2, “1,1,1-trifluoro-3-hydroxypropan-2-yl carbamate derivatives and 1,1,1-trifluoro-4-hydroxybutan-2-yl carbamate derivatives as MAGL inhibitors” (PFIZER INC., priority 2015, dated 2020):
pIC50: −log10 of the molar value. Read-outs that look alike come from different tables or passages of the source.

Columns and labels:
Assay type in all cases: biochemical
[1] = target: T1, human recombinant Monoacylglycerol Lipase (Homo sapiens, UniProt Q99685); test: MAGL inactivation, enzyme progress curves, kinact/KI; settings: from enzyme progress curves, T = 0 min protocol; geometric mean of 2-4 determinations unless otherwise indicated
T1 sequence (Q99685 1-303): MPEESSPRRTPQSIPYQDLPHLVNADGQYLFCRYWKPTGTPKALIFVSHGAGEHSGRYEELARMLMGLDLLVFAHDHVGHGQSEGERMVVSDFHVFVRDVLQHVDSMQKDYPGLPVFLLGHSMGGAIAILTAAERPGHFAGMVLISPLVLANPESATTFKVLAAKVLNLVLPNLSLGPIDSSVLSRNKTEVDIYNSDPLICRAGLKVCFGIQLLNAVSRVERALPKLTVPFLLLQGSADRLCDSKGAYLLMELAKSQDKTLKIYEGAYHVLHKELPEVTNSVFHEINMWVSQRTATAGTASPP
Protocol: Assessment of MAGL inhibition utilizes human recombinant Monoacylglycerol Lipase and the fluorogenic substrate 7-hydroxycoumarinyl arachidonate (7-HCA, Biomol ST-502). 400 nL of a test compound at decreasing concentration (ranging from 150 μM down to 1.5 nM) was spotted into a 384-well back plate (PerkinElmer, 6007279) using a Labcyte Echo, followed by addition of 10 μL of MAGL enzyme in assay buffer (50 mM HEPES, pH 7.4, 100 mM NaCl, 5 mM MgCl2, 0.1% Triton X-100 and 25% glycerin). An equal volume of 7-HCA in assay buffer with 10% DMSO was added either immediately (T=0 min) or after a 30 minute incubation (T=30 min) to initiate the reaction. The final concentration of MAGL enzyme was […] and 7-HCA substrate was 5 μM. After these dilutions, the final concentration of the test compound ranged from 3 μM to 0.03 nM. The reaction was allowed to progress for 60 minutes, after which the plate was read at an Ex/Em of 340/465. Percent inhibitions were calculated based on control wells containing no compound (0% inhibition) and a control compound (e.g., a MAGL inhibitor whose activity is known or was previously reported in the literature, such as one with about 100% inhibition). IC50 values were generated based on a four parameter fit model using ABASE software from IDBS. See e.g., Wang, Y. et al., “A Fluorescence-Based Assay for Monoacylglycerol Lipase Compatible with Inhibitor Screening,” Assay and Drug Development Technologies, 2008, Vol. 6 (3) pp 387-393 (reporting an assay for measuring MAGL activity).
To measure MAGL inactivation, the same protocol for the (T=0 min) MAGL inhibition IC50 assay was performed with data collected every minute to acquire enzyme progress curves at decreasing concentrations of compound.

[2] = target: T1, human recombinant Monoacylglycerol Lipase; test: MAGL inhibition enzymatic assay, fluorogenic substrate 7-HCA, IC50 at T=0 min or after 30 minute incubation (T=30 min); settings: geometric mean of 2-4 determinations unless otherwise indicated
Protocol: An equal volume of 7-HCA in assay buffer with 10% DMSO was added either immediately (T=0 min) or after a 30 minute incubation (T=30 min) to initiate the reaction. […] After these dilutions, the final concentration of the test compound ranged from 3 μM to 0.03 nM. […] IC50 values were generated based on a four parameter fit model using ABASE software from IDBS.

[3] = target: T2, human recombinant FAAH (Homo sapiens, UniProt O00519); test: FAAH inhibition enzymatic assay, fluorescent substrate Arachidonoyl-AMC, 30 minute incubation; settings: T = 30 min (30 minute incubation); geometric mean of 2-4 determinations unless otherwise indicated
T2 construct: purchased Cayman 10010183
T2 sequence (O00519 1-579): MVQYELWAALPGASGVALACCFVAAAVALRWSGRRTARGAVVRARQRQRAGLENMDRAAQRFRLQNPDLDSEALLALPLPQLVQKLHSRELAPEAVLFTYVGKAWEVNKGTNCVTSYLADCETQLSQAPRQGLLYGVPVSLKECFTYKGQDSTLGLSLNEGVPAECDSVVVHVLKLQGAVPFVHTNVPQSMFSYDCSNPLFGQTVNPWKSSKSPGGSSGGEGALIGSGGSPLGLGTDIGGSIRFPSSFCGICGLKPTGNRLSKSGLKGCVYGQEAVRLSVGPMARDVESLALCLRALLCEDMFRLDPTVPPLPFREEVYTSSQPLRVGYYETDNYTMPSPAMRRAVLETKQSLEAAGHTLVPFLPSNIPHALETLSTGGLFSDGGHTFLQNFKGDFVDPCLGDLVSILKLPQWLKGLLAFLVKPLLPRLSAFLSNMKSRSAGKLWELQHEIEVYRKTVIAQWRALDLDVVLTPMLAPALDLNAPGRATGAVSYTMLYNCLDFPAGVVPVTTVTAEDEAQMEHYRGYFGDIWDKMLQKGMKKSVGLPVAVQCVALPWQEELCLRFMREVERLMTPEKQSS
Protocol: Assessment of FAAH inhibition utilizes human recombinant FAAH and the fluorescent substrate, Arachidonoyl-AMC. 400 nL of a test compound at decreasing concentrations was spotted into a 384-well back plate (PerkinElmer, 6007279) using a Labcyte Echo, followed by addition of 10 μl of FAAH enzyme (Cayman 10010183) in assay buffer (50 mM Tris, pH 9.0, 1 mM EDTA). After a 30 minute incubation at room temperature, 10 μL of Arachidonyl-AMCA was added in assay buffer with 16% DMSO. Final concentration of FAAH enzyme was 0.0125 Units and AAMCA substrate was used at the Km of 5 μM. […] The reaction was allowed to progress for 60 minutes, after which the plate was read on a Molecular Devices FlexStation reader at an Ex/Em of 355/460. Percent inhibitions were calculated based on controls wells containing either no compound (0% inhibition) or a control compound (e.g., an FAAH inhibitor whose activity is known or was previously reported in the literature, such as one with about 100% inhibition). IC50 values were generated based on a four parameter fit model using ABASE software from IDBS.

[4] = T = 0 min (substrate added immediately), read-out: MAGL (T = 0 min) IC50
[5] = T = 30 min (30 minute incubation), read-out: MAGL (T = 30 min) IC50

SMILES | MAGL kinact/KI [1] | pIC50 [2, 4] | pIC50 [2, 5] | pIC50 [3]
CN(C1COC2(CCN(C(=O)O[C@H](CO)C(F)(F)F)CC2)C1)S(=O)(=O)c1cccc(F)c1 (single isomer, unassigned) [Example 109] | 34918 1/s per M | 7.68 | 8.70 | < 4.52
CN(C1COC2(CCN(C(=O)O[C@H](CO)C(F)(F)F)CC2)C1)S(=O)(=O)c1ccc(F)cc1 (single isomer, unassigned) [Example 110] | 8796 1/s per M | 7.15 | 8.22 | 5.15
CN(C1COC2(CCN(C(=O)O[C@H](CO)C(F)(F)F)CC2)C1)S(=O)(=O)c1ccc(F)cc1 (single isomer, unassigned) [Example 111] | 33483 1/s per M | 7.55 | 8.70 | < 4.52
O=C(O[C@H](CO)C(F)(F)F)N1CCC2(CC1)CC(Oc1ccccn1)CO2 (single isomer, unassigned) [Example 130] | 12483 1/s per M | 7.12 | 8.22 | 4.59
O=C(OC(C(F)(F)F)C(F)(F)CO)N1CCC2(CC1)CN(S(=O)(=O)c1ccc(F)cc1)CCO2 (single isomer, unassigned; ent-1) [Example 20, 1,1,1,3,3-Pentafluoro-4-hydroxybutan-2-yl 4-[(4-fluorophenyl)sulfonyl]-1-oxa-4,9-diazaspiro[5.5]undecane-9-carboxylate, ENT-1] | 4611 1/s per M | 7.21 | 8.22 | < 4.52
O=C(O[C@H](CO)C(F)(F)F)N1CCC(c2ccn(-c3ccc(F)cc3)n2)CC1 [Example 2, (2R)-1,1,1-Trifluoro-3-hydroxypropan-2-yl 4-[1-(4-fluorophenyl)-1H-pyrazol-3-yl]piperidine-1-carboxylate] | 6109 1/s per M | 7.25 | 8.10 | 5.94
O=C(O[C@H](CO)C(F)(F)F)N1C[C@@H]2[C@H](C1)[C@H]2c1ccn(-c2ccc(F)cc2)n1 [Example 3, (2R)-1,1,1-Trifluoro-3-hydroxypropan-2-yl (1α,5α,6α)-6-[1-(4-fluorophenyl)-1H-pyrazol-3-yl]-3-azabicyclo[3.1.0]hexane-3-carboxylate] | 20005 1/s per M | 7.46 | 8.52 | 5.61
O=C(O[C@H](CO)C(F)(F)F)N1CCC2(CC1)CN(S(=O)(=O)c1ccccc1)CCO2 [Example 7, (2R)-1,1,1-Trifluoro-3-hydroxypropan-2-yl 4-(phenylsulfonyl)-1-oxa-4,9-diazaspiro[5.5]undecane-9-carboxylate] | 29124 1/s per M | 7.54 | 8.52 | < 4.62
O=C(O[C@H](CO)C(F)(F)F)N1CCC2(CC1)C[C@H](NS(=O)(=O)c1ccccc1)CO2 [Example 8, (2R)-1,1,1-Trifluoro-3-hydroxypropan-2-yl (3S)-3-[(phenylsulfonyl)amino]-1-oxa-8-azaspiro[4.5]decane-8-carboxylate] | 6754 1/s per M | 7.24 | 8.30 | < 4.52
O=C(O[C@H](CO)C(F)(F)F)N1CCC(Oc2ccc(C3CC3)cn2)CC1 [Example 10, (2R)-1,1,1-Trifluoro-3-hydroxypropan-2-yl 4-[(5-cyclopropylpyridin-2-yl)oxy]piperidine-1-carboxylate] | 5205 1/s per M | 7.11 | 8.15 | < 4.52
O=C(O[C@H](CO)C(F)(F)F)N1CCC2(CC1)CN(S(=O)(=O)c1cccc(F)c1)CCO2 [Example 11, (2R)-1,1,1-Trifluoro-3-hydroxypropan-2-yl 4-[(3-fluorophenyl)sulfonyl]-1-oxa-4,9-diazaspiro[5.5]undecane-9-carboxylate] | 147964 1/s per M | 7.85 | 9.00 | < 4.52
O=C(O[C@H](CO)C(F)(F)F)N1CCC2(CCCN(S(=O)(=O)c3ccc(F)cc3)C2)CC1 [Example 12, (2R)-1,1,1-Trifluoro-3-hydroxypropan-2-yl 2-[(4-fluorophenyl)sulfonyl]-2,9-diazaspiro[5.5]undecane-9-carboxylate] | 1801 1/s per M | 6.73 | 7.77 | < 4.52
O=C(O)C(F)(F)F.O=C(O[C@H](CO)C(F)(F)F)N1CCC(Oc2nccc3ccccc23)CC1 [Example 26, (2R)-1,1,1-Trifluoro-3-hydroxypropan-2-yl 4-(isoquinolin-1-yloxy)piperidine-1-carboxylate, trifluoroacetic acid salt] | 16949 1/s per M | 7.51 | 8.70 | 5.11
O=C(OC(C(F)(F)F)C(F)(F)CO)N1C[C@@H]2[C@H](C1)[C@H]2c1ccn(-c2ccc(F)cc2)n1 (stereo partly shown) [Example 39] | 9893 1/s per M | 7.47 | 8.70 | 5.22
O=C(O[C@H](CO)C(F)(F)F)N1CCC(CNS(=O)(=O)c2ccc(F)cc2)CC1 [Example 47] | 5046 1/s per M | 6.76 | 7.77 | < 4.52
Cc1cc(S(=O)(=O)N2CCOC3(CCN(C(=O)O[C@H](CO)C(F)(F)F)CC3)C2)ccc1F [Example 51] | 10340 1/s per M | 7.37 | 8.40 | < 4.52
O=C(O[C@H](CO)C(F)(F)F)N1CCC2(CC1)CN(S(=O)(=O)c1ccc(F)c(F)c1)CCO2 [Example 52] | 7262 1/s per M | 7.25 | 8.30 | < 4.52
O=C(O[C@H](CO)C(F)(F)F)N1CCC(Oc2ccc(C(F)(F)F)cn2)CC1 [Example 53] | 6900 1/s per M | 7.28 | 8.22 | < 4.52
CN(CC1CCN(C(=O)O[C@H](CO)C(F)(F)F)CC1)S(=O)(=O)c1ccc(F)cc1 [Example 62] | 216 1/s per M | 7.17 | 8.15 | < 4.52
